Test results taken from patent US10399964B2, “Coumarin-linked taxanes for detection and circumvention of cellular efflux” (The University of Kansas, priority 2017, dated 2019).
Entries after “also recorded” stand apart in the source; their conditions may differ.

Legend:
[1] = biological target: cross-linked microtubules from bovine brain; assay: Affinity for cross-linked microtubules by fluorescence enhancement; details: GAB buffer (pH 6.5); equilibrium binding curves; excitation 405 nm; read-out: apparent Kd
Description: PB was excited at 405 nm and emitted photons were collected at and above 450 nm.
Experiments were conducted to obtain the measured affinities of Compounds 1-3 for cross-linked microtubules from bovine brain using a fluorescence enhancement method (FIG. 2). […] PB was excited at 405 nm and emitted photons were collected at and above 450 nm.

[2] = test system: HeLa cervical carcinoma cells; assay: Cytotoxicity, cellular viability by flow cytometry, HeLa; details: for relative toxicity (cellular viability versus concentration) / IC50: HeLa cells; for relative toxicity (cellular viability versus concentration): FIG. 9; for IC50: 48 h
Description: The cytotoxicity of the taxane PB fluorophores towards HeLa cervical carcinoma cells (FIGS. 4A and 4B) was evaluated. These cell lines were treated for 48 h, cellular viability was analyzed by flow cytometry, and paclitaxel was used as a positive control.
The IC50s were also determined.

[3] = test system: HCT-15 cells; assay: Cytotoxicity, cellular viability by flow cytometry, HCT-15; type: cell-based; details: for IC50: Homo sapiens, HCT-15, 48 h, 48 h
[4] = test system: HeLa cells; assay: Subcellular distribution and colocalization by confocal microscopy in living HeLa cells; type: cell-based; details: for subcellular distribution / colocalization: confocal microscopy, 1 h; for binding to microtubules in cells: HeLa cells transfected with mCherry-tubulin
Description: To examine the subcellular distribution of Compound 1, HeLa cells were imaged by confocal laser scanning microscopy (FIGS. 5A, 5B, and 5C). […] The distinct spectral profiles of PB and OG were used to further examine colocalization of Compound 1 and Flutax-2® (FIG. 5C).
The experiment was conducted by 1 hour incubation with HeLa cells, followed by a wash and then imaging using a 25% laser power with excitation at 405 nm and emission at 425-500 nm.
The studies compared the potency as an endoplasmic reticulum probe with commercial ER probe ER Tracker Blue-White DPX. […] Panels A and B used 1 nM of the compounds, Panels A1 and B1 used 10 nM of the compounds, Panels A2 and B2 used 100 nM of the compounds, and Panels A3 and B3 used 1 μM of the compounds.
As such, Compound 2 (PB-β-Ala-Taxol) was compared to iPr-Rhodol-β-Ala-Taxol with HeLa cells transfected with mCherry-tubulin.

[5] = test system: HeLa, Ramos, Raji, HL-60, and Jurkat cell lines; assay: Uptake into different cell lines by flow cytometry; type: cell-based; details: 1 μM, 1 h, 200,000 cells/200 μL; verapamil 0, 25, 100 μM
Description: The uptake of Compound 1 (PB-Gly-Taxol, at 1 μM, 1 h, 200,000 cells/200 μL) by different cell lines was studied and quantified by using flow cytometry.

[6] = biological target: P-gp in HCT-15 cells (Homo sapiens, UniProt P08183); assay: P-gp efflux: cellular fluorescence with or without verapamil by flow cytometry, HCT-15; details: probe 1 μM
Description: Studies were conducted to investigate the efflux of Compound 1 in HCT-15 cells that express high levels of P-gp. Compound 1 was compared with rhodamine 123 (Rho123), a common P-gp substrate that accumulates in mitochondria.

[7] = biological target: P-gp in HeLa cells (Homo sapiens, UniProt P08183); assay: P-gp efflux: cellular fluorescence with or without verapamil by flow cytometry, HeLa; details: probe 1 μM
P-gp in HeLa cells, sequence (P08183 whole entry): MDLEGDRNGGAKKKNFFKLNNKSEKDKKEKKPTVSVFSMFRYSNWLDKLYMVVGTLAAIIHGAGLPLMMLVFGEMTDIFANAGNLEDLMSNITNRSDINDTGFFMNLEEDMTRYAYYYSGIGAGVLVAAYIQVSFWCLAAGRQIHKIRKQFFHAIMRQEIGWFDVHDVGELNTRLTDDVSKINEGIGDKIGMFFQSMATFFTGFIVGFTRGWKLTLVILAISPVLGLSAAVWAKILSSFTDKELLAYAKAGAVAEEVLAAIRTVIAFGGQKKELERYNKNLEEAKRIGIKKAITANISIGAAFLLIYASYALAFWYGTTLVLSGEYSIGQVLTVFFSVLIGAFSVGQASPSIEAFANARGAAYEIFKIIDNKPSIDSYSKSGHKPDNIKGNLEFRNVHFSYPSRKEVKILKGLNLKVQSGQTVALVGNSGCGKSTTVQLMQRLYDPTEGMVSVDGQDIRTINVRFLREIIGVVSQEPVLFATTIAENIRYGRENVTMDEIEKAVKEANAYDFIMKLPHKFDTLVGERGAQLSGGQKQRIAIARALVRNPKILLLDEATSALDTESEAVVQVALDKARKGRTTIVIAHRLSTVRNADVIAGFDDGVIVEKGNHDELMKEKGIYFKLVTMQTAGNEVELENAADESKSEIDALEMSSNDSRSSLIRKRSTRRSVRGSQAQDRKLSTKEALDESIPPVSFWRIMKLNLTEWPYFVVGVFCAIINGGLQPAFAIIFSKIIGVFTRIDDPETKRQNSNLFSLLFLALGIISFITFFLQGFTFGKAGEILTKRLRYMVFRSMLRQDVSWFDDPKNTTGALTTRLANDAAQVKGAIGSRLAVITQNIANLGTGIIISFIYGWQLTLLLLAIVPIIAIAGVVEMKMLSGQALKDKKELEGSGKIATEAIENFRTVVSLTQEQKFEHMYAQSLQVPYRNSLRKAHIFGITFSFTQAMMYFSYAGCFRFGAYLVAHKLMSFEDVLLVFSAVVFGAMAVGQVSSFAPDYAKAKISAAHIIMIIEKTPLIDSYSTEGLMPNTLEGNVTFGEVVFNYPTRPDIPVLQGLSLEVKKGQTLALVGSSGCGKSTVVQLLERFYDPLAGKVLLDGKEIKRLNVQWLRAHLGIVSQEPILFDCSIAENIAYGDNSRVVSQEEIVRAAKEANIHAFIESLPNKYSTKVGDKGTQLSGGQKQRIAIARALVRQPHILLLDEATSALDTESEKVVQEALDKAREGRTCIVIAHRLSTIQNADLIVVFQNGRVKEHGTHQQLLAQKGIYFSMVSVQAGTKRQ

P-gp in HCT-15 cells, sequence (P08183 whole entry): as above

Compound: CC(=O)OC1C(=O)C2(C)C(OC(=O)CNC(=O)c3cc4cc(F)c(O)c(F)c4oc3=O)CC3OCC3(OC(C)=O)C2C(OC(=O)c2ccccc2)C2(O)CC(OC(=O)C(O)C(NC(=O)c3ccccc3)c3ccccc3)C(C)=C1C2(C)C (stereo not shown) [Compound 1, PB-Gly-Taxol]
- Kd [1]: 34 ± 6 nM
- relative toxicity (cellular viability versus concentration) [2]: less toxic than PB-NHMe-Gly-Taxol (Compound 21); also recorded: less toxic than paclitaxel
- IC50 ([2]; Homo sapiens, HeLa, absence of verapamil): 120 nM
- IC50 ([2]; Homo sapiens, HeLa, presence of verapamil (25 μM)): 60 nM
- IC50 ([3]; with verapamil (25 μM)): 90 nM
- IC50 ([3]; without verapamil): 3700 nM
- enhancement of toxicity by verapamil ([3]; verapamil 25 μM versus none): 41 fold
- subcellular distribution / colocalization ([4]; living HeLa cells): bound microtubules with very high specificity
- effect of verapamil on uptake [5]: the inclusion of verapamil increased the uptake

Compound: CC(=O)OC1C(=O)C2(C)C(OC(=O)CCNC(=O)c3cc4cc(F)c(O)c(F)c4oc3=O)CC3OCC3(OC(C)=O)C2C(OC(=O)c2ccccc2)C2(O)CC(OC(=O)C(O)C(NC(=O)c3ccccc3)c3ccccc3)C(C)=C1C2(C)C (stereo not drawn) [Compound 2, PB-β-Ala-Taxol]
- Kd [1]: 63 ± 8 nM
- binding to microtubules in cells [4]: can bind to microtubules better than when paclitaxel is coupled to a different fluorophore

Compound: CC(=O)OC1C(=O)C2(C)C(OC(=O)CCCNC(=O)c3cc4cc(F)c(O)c(F)c4oc3=O)CC3OCC3(OC(C)=O)C2C(OC(=O)c2ccccc2)C2(O)CC(OC(=O)C(O)C(NC(=O)c3ccccc3)c3ccccc3)C(C)=C1C2(C)C (stereo not shown) [Compound 3, PB-GABA-Taxol]
- Kd [1]: 265 ± 54 nM

Compound: CC(=O)O[C@H]1C(=O)[C@@]2(C)C([C@H](OC(=O)c3ccccc3)[C@]3(O)C[C@H](OC(O)[C@H](O)[C@@H](NC(=O)c4ccccc4)c4ccccc4)C(C)=C1C3(C)C)[C@]1(OC(C)=O)CO[C@@H]1C[C@@H]2OC(=O)CCNC(=O)c1ccc(-c2c3cc(F)c(=O)cc-3oc3cc(NC(C)C)c(F)cc23)c(C)c1 (stereo partly drawn) [iPr-Rhodol-β-Ala-Taxol, reference compound]
- cytotoxicity (in words) [2]: without engendering substantial cytotoxicity
- binding to microtubules in cells [4]: does not bind extensively to microtubules
- subcellular distribution / colocalization ([4]; living HeLa cells): appears to accumulate predominantly in the endoplasmic reticulum

Compound: Flutax-2® [reference compound]
- IC50 ([2]; presence of verapamil (25 μM)): 1310 nM
- subcellular distribution / colocalization ([4]; living HeLa cells): punctate fluorescence that did not co-localize with Compound 1 on microtubules

Compound: PB-NH2-Gly-Taxol [Compound 22]
- subcellular distribution / colocalization ([4]; living HeLa cells): accumulate in the endoplasmic reticulum

Compound: PB-NHMe-Gly-Taxol [Compound 21]
- relative toxicity (cellular viability versus concentration) [2]: less toxic than paclitaxel
- potency as endoplasmic reticulum probe ([4]; living HeLa cells, 1 nM to 1 μM, versus ER Tracker Blue-White DPX): more potent as an endothelium reticulum probe compared to ER Tracker Blue-White DPX
- subcellular distribution / colocalization ([4]; living HeLa cells): does not appear to colocalize with Flutax-2® on microtubules
- subcellular distribution / colocalization ([4]; living HeLa cells, listed as PB-NHMe-Gly-Taxol): accumulate in the endoplasmic reticulum; also recorded: colocalizes with the red fluorescent endoplasmic reticulum probe HRA

Compound: rhodamine 123 [Rho123]
- increase of cellular fluorescence in presence of verapamil ([6]; verapamil 25 μM): 3 fold
- increase of cellular fluorescence in presence of verapamil ([6]; verapamil 100 μM): 3 fold
- detection of low levels of P-gp activity [7]: undetectable
